Each structure is given as a SMILES string.

The test system of data set [1] is muscarinic receptors (oxotremorine-induced lesions in the mucous membrane of the stomach). Nature of the data set: Oxotremorine test: lesions in the mucous membrane of the stomach (anti-ulcerative effect). Format: in vivo, female albino rats (Crl:COBS-CD (SD) BR strain). The settings on record: iv; rat, test substance i.v. 15 minutes before oxotremorine 0.62 mg/kg i.v.; neostigmine 1 mg/kg oral. The protocol:
(§1) Oxotremorine, a specific against for muscarinic receptors produces lesions in the mucous membrane of the stomach in rats and increases their secretion of saliva. This test method was chosen so that any selective activity of an antimuscarinic substance on the stomach could be identified.
(§2) Ten female albino rats (of the Crl:COBS-CD (SD) BR strain) with a body weight of from 120 to 150 gm apiece were used in each treatment group and were kept without food for 24 hours before the start of the test but given free access to drinking water.
(§3) To determine, in preliminary tests, the muscarinic effect of oxotremorine on each of the symptons studies, a dosage/activity curve was drawn up with at least three dosages for each symptom.
(§4) When the antimuscarinic substances were tested, the dosage of oxotremorine which triggered the symptom in question in 90 to 100% of the animals in the preliminary tests was used.
Lesions in the mucous membrane of stomach: 0.62 mg/kg i.v.
(§5) Each antimuscarinic substance was administered intravenously in uniformly graduated doses 15 minutes before the oxotremorine was administered. Control groups were given corresponding quantities of the solvent and suspension agent instead of the test substance. Immediately after the oxotremorine was administered, the animals were placed in a glass case for 15 minutes and observed.
The effects on lesions of the nucous membrane of the stomach were evaluated as follows:
The lesions of the gastric mucous membrane were produced by intravenous injection of 0.62 mg/kg of oxotremorine 30 minutes after the oral administration of 1 mg/kg of neostigmine (a cholinesterase inhibitor). Sixty minutes after the administration of the neostigmine, the animals were killed, and the stomachs were removed, opened, and examined for the presence of any lesions in the mucous membrane. The protective effect of the test substances was expressed as the percentage inhibition (percentage of animals with lesions).
The ED50 and ED70 values were determined using the method of LITCHFIELD and WILCOXON (eee above).

For data set [2], the target named is muscarinic receptors (smooth muscle of the fundus of the stomach). Nature of the data set: Binding to muscarinic receptors, 3H-N-methylscopolamine displacement, smooth muscle of fundus of stomach. To be noted: smooth muscle of fundus homogenate 1:100; 0.3 n molar 3H-N-methylscopolamine; 30° C., 45 minutes; pH 7.4; read-out: Receptor binding tests IC50, Smooth Muscle Fundus of Stomach. Further details: species or system male Sprague-Dawley rats. The protocol:
(§6) 3. STUDIES OF BINDING TO MUSCARINIC RECEPTORS: DETERMINATION OF THE IC50 VALUES
(§7) The organ donors were male Sprague-Dawley rats with a body weight of from about 180 to 220 gm each. After the heart, stomach, and cerebral cortex had been removed, the remainder of the operation was carried out in ice-cold Hepes-HCl buffer (pH 7.4; 100 m molar NaCl, 10 m molar MgCl2). The smooth muscle of the fundus of the stomach was separated from the mucous membrane of the stomach and subjected to preliminary homogenization. The whole heart was cut up with scissors. All the organs were then homogenized in a Potter apparatus.
(§8) For the binding test, the homogenized organs were diluted as follows:
Smooth muscle of the fundus of the stomach: 1:100
(§9) The homogenized organ preparations were incubated at a specific concentration of the radioligand and with a series of concentrations of the non-radioactive test substances in an Eppendorf centrifuge tube at 30° C. The duration of incubation was 45 minutes. As substance 0.3 n molar ^3 H-N-methylscopolamine (^3 H-NMS) was used as the radioligand. After incubation had been brought to an end by centrifuging at 14000 g, the radioactivity in the pellet was determined. It represents the sum of the specific and non-specific binding of ^3 H-NMS. The proportion of non-specific binding was defined as the radioactivity which was bound in the presence of 1μ molar quinuclidinylbenzylate. Four measurements were taken in each case. The IC50 values of the non-labelled test substances were determined graphically. They represent the concentration of test substance at which the specific binding of ^3 H-NMS to the muscarinic receptors in the various organs was inhibited by 50%.

For data set [3], the target named is muscarinic receptors (cerebral cortex). Nature of the data set: Binding to muscarinic receptors, 3H-N-methylscopolamine displacement, cerebral cortex. Further details: species or system male Sprague-Dawley rats. To be noted: cerebral cortex homogenate 1:3000; 0.3 n molar 3H-N-methylscopolamine; 30° C., 45 minutes; pH 7.4; read-out: Receptor binding tests IC50, Cortex. The protocol:
as §6, §7, §8, §9

Data set [4] has as its system muscarinic receptors (oxotremorine-induced secretion of saliva). Nature of the data set: Oxotremorine test: inhibition of salivation. In kind it is in vivo, female albino rats (Crl:COBS-CD (SD) BR strain). The settings on record: iv, 0.25 h; rat, test substance i.v. 15 minutes before oxotremorine 0.083 mg/kg i.v.; blind test. The protocol:
as §1, §2, §3, §4
Secretion of saliva: 0.083 mg/kg i.v.
as §5
The ED50 values were determined using the method described by LITCHFIELD and WILCOXON (J. Pharmacol. Exp. Ther. 96, 99, 1949).

Another data set can be described thus: Testing for mydriasis. The arrangement: species or system rats. To be noted: in vivo, iv; rat; pupil size observed for 10 minutes; blind test. The protocol: The effect of the test substances on the pupil size in rats was investigated as follows:
The substances were administered intravenously to groups of 10 animals in at least three uniformly graduated doses.

The target of data set [5] is T1, muscarinic receptors (whole heart) (Rattus norvegicus, UniProt P10980).
T1 construct: from tissue; host or cells: whole heart of male Sprague-Dawley rats, homogenate
T1 sequence (P10980 1-466): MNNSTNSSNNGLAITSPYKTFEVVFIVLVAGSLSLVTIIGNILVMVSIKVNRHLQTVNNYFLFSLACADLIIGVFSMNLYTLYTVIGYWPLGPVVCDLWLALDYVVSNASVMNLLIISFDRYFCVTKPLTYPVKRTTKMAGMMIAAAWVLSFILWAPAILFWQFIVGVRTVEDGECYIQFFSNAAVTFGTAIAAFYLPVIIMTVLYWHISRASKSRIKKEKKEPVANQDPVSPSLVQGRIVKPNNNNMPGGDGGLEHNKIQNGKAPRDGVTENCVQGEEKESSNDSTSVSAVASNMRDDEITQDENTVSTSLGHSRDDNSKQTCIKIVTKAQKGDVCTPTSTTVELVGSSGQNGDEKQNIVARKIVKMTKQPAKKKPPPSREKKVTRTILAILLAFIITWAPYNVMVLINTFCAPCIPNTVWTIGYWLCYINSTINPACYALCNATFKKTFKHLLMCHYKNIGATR
Nature of the data set: Binding to muscarinic receptors, 3H-N-methylscopolamine displacement, whole heart. To be noted: whole heart homogenate 1:250; 0.3 n molar 3H-N-methylscopolamine; 30° C., 45 minutes; pH 7.4; read-out: Receptor binding tests IC50, Heart. The arrangement: species or system male Sprague-Dawley rats. The protocol: as §6, §7, §8
as §9, with “It represents the sum of the specific and non-specific binding of ^3 H-NMS.” left out, “Four measurements were taken in each case.” left out, “They represent the concentration of test substance at which the specific binding of ^3 H-NMS to the muscarinic receptors in the various organs was inhibited by 50%.” left out

Consider `CN1CCC(OC(=O)N2c3ccccc3NC(=O)c3ccccc32)CC1` [A], for which the ED50 in data set [1] is 0.0155 mg/kg; in data set [4] it was 0.064 mg/kg. This molecule also showed an ED70 in data set [1] of 0.036 mg/kg. Also, the IC50 in data set [2] was 60 nM; in data set [3] it was 5.5 nM; in data set [5], 42 nM. For the same molecule, the ED50 at 10 min in the data set “Testing for mydriasis” is 0.071 mg/kg.

Consider `CN1CCN(NC(=O)N2c3ccccc3NC(=O)c3ccccc32)CC1` [C], for which the median effective dose (ED50) in data set [1] came out at 0.0036 mg/kg; in data set [4] it was 0.032 mg/kg. Moreover, in data set [1], the ED70 was found to be 0.007 mg/kg. Besides, the IC50 in data set [2] was 90 nM; in data set [3] it was 18 nM. This molecule also gave an ED50 at 10 min in “Testing for mydriasis” of 0.0825 mg/kg.

Take `CN1CCC(NC(=O)N2c3ccccc3NC(=O)c3ccccc32)CC1` [B]: the ED50 in data set [1] was 0.0025 mg/kg; in data set [4], 0.022 mg/kg. The ED70 in data set [1] is 0.0048 mg/kg. For the same molecule, the concentration for half-maximal inhibition (IC50) is 100 nM in data set [2], 13 nM in data set [3] and 75 nM in data set [5]. The 50% effect level in “Testing for mydriasis” (ED50 at 10 min) was put at a dose of 0.023 mg/kg.

The values are drawn from patent US4443452A, “Dibenzodiazepinones, pharmaceutical compositions thereof and method of use thereof” (Dr. Karl Thomae GmbH, priority 1982, dated 1984).
